Source: US20060069132A1, “Azolecarboxamide herbicides” (priority 2004, published 2006)

Legend:
[1] = test system: wheat; assay: Test B postemergence herbicide test; type: in vivo, Triticum aestivum; set-up: key to Wheat plant response rating: 0 = no effect, 100 = complete control; details: postemergence, 500 g ai/ha; visual rating, scale 0 (no effect) to 100 (complete control)
Method in brief: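 Scale 0–100: zero equals no visible effect, 100 complete control, judged by eye relative to controls. Timing: 13 to 15 days in greenhouse post-treatment. Growth stage at spraying: two leaves (paddy) or one to four leaves, 2–18 cm (postemergence).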

[2] = test system: large crabgrass; assay: Test C pre-/postemergence herbicide test; type: in vivo, Digitaria sanguinalis; details: for Crabgrass, Large plant response rating: 500 g ai/ha
Method in brief: (§1)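 Visual injury scores run from 0 (no effect) to 100 (complete control), assessed relative to untreated controls 12 to 14 days after treatment in the greenhouse. Chemicals were formulated in a non-phytotoxic solvent mixture with surfactant and applied to soil after planting or to emerged plants at the 1- to 4-leaf stage.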

[3] = test system: giant foxtail; assay: Test A pre-/postemergence herbicide test; type: in vivo, Setaria faberi
Method in brief: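 Pre: seeded sandy loam, directed soil spray, compound in non-phytotoxic solvent + surfactant. Post: 1–2-leaf plants (2–10 cm), sprayed to runoff. Greenhouse ~10 d; visual injury vs untreated, 0–100 scale.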

[4] = test system: woolly cupgrass; assay: Test C pre-/postemergence herbicide test; type: in vivo, Eriochloa villosa; details: for Cupgrass, Woolly plant response rating: 500 g ai/ha
Method in brief: as §1

[5] = test system: yellow nutsedge; assay: Test C pre-/postemergence herbicide test; type: in vivo, Cyperus esculentus; details: for Nutsedge, Yellow plant response rating: 500 g ai/ha
Method in brief: as §1

[6] = test system: barnyardgrass; assay: Test B flooded paddy test; type: in vivo, Echinochloa crus-galli; details: 1000 g ai/ha, visual rating, scale 0 to 100 (0 no effect, 100 complete control), 13 to 15 days
Method in brief: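 Read-out: visual comparison with controls, scored 0 to 100, where 100 means complete control and 0 no effect. Formulated chemicals were applied postemergence to plants 2–18 cm tall (1- to 4-leaf), or to flooded-paddy plants at the 2-leaf stage, then held 13 to 15 days under glass.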

[7] = test system: eastern black nightshade; assay: Test C pre-/postemergence herbicide test; type: in vivo, Solanum ptycanthum
Method in brief: as §1

[8] = test system: barnyardgrass; assay: Test C flooded paddy test; type: in vivo, Echinochloa crus-galli
Method in brief: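 Scoring by eye, 12–14 days post-treatment, greenhouse-held plants vs. controls; 0 no effect, 100 complete control. Sprayed at 1–4 leaves (2–18 cm); paddy barnyardgrass at 2 leaves, flooded.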

[9] = test system: rice; assay: Test C flooded paddy test; type: in vivo, Oryza sativa
Method in brief: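 Injury scored visually against controls on a 0 (no effect) to 100 (complete control) scale, 12 to 14 days after treatment in greenhouse. Flooded paddy plants treated at 2-leaf stage; postemergence plants at 1- to 4-leaf stage, 2 to 18 cm tall.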

[10] = 125 g ai/ha, scale 0 (no effect) to 100 (complete control), visual, 12 to 14 days, preemergence
[11] = 250 g ai/ha, scale 0 to 100 (0 no effect, 100 complete control), visual, 12 to 14 days, preemergence
[12] = Postemergence, 250 g ai/ha, scale 0 to 100, 0 no effect, 100 complete control
[13] = Preemergence, scale 0 to 100, 0 no effect, 100 complete control
[14] = postemergence, 125 g ai/ha, scale 0 to 100
[15] = postemergence, 62 g ai/ha, scale 0 to 100
[16] = 62 g ai/ha, scale 0 to 100 (0 no effect, 100 complete control)

C#CCNC(=O)c1cccc(NC(=O)c2cc(C(C)(C)C)nn2CC)n1 [Compound 147]
Wheat plant response rating [1]: 20
Plant response rating (0 = no effect, 100 = complete control), Crabgrass, Large ([2]; 62 g ai/ha, preemergence): 0
Plant response rating, Crabgrass, Large [2, 10]: 50
Plant response rating, Crabgrass, Large [2, 11]: 90
Crabgrass, Large plant response rating ([2]; Postemergence, scale 0 to 100): 60
Plant response rating, Crabgrass, Large [2, 12]: 10
Crabgrass, Large plant response rating [2, 13]: 100
Plant response rating, Crabgrass, Large [2, 14]: 0
Plant response rating, Crabgrass, Large [2, 15]: 0
Foxtail, Giant plant response rating ([3]; Postemergence, 500 g ai/ha, 0 to 100 scale, 0 no effect, 100 complete control): 45
Plant response rating, Foxtail, Giant ([3]; Postemergence, 2000 g ai/ha, 0 to 100 scale, 0 no effect, 100 complete control): 90
Foxtail, Giant plant response rating ([3]; Preemergence, 500 g ai/ha, visual rating, 0 to 100 scale (0 no effect, 100 complete control)): 60
Foxtail, Giant plant response rating ([3]; Preemergence, 2000 g ai/ha, visual rating, 0 to 100 scale (0 no effect, 100 complete control)): 95
Plant response rating (0 = no effect, 100 = complete control), Cupgrass, Woolly ([4]; 62 g ai/ha, preemergence): 0
Plant response rating, Cupgrass, Woolly [4, 10]: 10
Plant response rating, Cupgrass, Woolly [4, 11]: 10
Cupgrass, Woolly plant response rating ([4]; Postemergence, scale 0 to 100): 30
Plant response rating, Cupgrass, Woolly [4, 12]: 10
Cupgrass, Woolly plant response rating [4, 13]: 60
Plant response rating, Cupgrass, Woolly [4, 14]: 0
Plant response rating, Cupgrass, Woolly [4, 15]: 0
Plant response rating (0 = no effect, 100 = complete control), Nutsedge, Yellow ([5]; 62 g ai/ha, preemergence): 0
Plant response rating, Nutsedge, Yellow [5, 10]: 0
Nutsedge, Yellow plant response rating ([5]; Postemergence, scale 0 to 100): 0
Plant response rating, Nutsedge, Yellow [5, 12]: 0
Nutsedge, Yellow plant response rating [5, 13]: 0
Plant response rating, Nutsedge, Yellow [5, 14]: 0
Plant response rating, Nutsedge, Yellow [5, 15]: 0
Barnyardgrass plant response rating [6]: 60
Plant response rating (0 = no effect, 100 = complete control), Nightshade ([7]; 62 g ai/ha, preemergence): 40
Plant response rating, Nightshade [7, 10]: 70
Nightshade plant response rating ([7]; Preemergence, 500 g ai/ha, scale 0 to 100, 0 no effect, 100 complete control): 100
Barnyardgrass plant response rating ([8]; 16 g ai/ha, scale 0 to 100): 0
Barnyardgrass plant response rating ([8]; 31 g ai/ha, scale 0 to 100): 0
Barnyardgrass plant response rating [8, 16]: 0
Barnyardgrass plant response rating ([8]; 125 g ai/ha, scale of 0 to 100, 0 is no effect, 100 is complete control): 0
Rice plant response rating ([9]; 16 g ai/ha, scale 0 to 100): 0
Rice plant response rating ([9]; 31 g ai/ha, scale 0 to 100): 0
Rice plant response rating [9, 16]: 0
Rice plant response rating ([9]; 125 g ai/ha, scale 0 to 100 (0 no effect, 100 complete control)): 0
